Source: US20210156868A1, “COMPOSITIONS AND METHODS FOR DETECTING ALBUMIN” (Tournament BioVenture LLC, priority 2019, published 2021)
“Also recorded” adds a separate entry of the source. One block for each compound: values may come before it.

What was measured:
HSA pseudo esterase = HSA pseudo esterase (Homo sapiens, UniProt P02768); assay: Michaelis-Menten kinetics of HSA pseudo esterase (FIG. 3); type: biochemical; details: 14:0 NPS-PC as probe
albumin = albumin (Homo sapiens, UniProt P02768); assay: Effects of solvent and additives on pseudo-lipase activity of albumin (FIG. 13); type: biochemical
Chain of albumin (P02768 25-609): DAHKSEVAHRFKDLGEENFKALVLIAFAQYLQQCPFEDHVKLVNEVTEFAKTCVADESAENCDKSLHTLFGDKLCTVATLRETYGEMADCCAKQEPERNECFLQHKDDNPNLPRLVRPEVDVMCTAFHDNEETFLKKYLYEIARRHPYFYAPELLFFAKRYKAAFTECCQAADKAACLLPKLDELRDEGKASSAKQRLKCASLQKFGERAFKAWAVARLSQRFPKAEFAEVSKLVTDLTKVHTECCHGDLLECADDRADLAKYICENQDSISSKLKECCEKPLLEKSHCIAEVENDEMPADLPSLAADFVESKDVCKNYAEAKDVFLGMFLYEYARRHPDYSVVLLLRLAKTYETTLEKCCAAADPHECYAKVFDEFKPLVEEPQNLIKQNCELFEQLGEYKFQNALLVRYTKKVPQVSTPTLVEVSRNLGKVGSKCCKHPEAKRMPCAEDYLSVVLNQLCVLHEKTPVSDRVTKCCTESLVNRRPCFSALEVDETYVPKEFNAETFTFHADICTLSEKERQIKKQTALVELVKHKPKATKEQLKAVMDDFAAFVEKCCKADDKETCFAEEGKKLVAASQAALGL
From the text: Dimethyl sulfoxide (DMSO), EDTA and Tween-20 had been used to determine the tolerable concentration of organic solvent.

Ca^2+ dependent PLA2 = details: 5 mM in the assay buffer
[1] = system: non-albumin esterase activity (PLA2 activity in human serum, associated with LDL or HDL); assay: Inhibition of non-albumin esterase (PLA2) activity with 14:0 NPS-PC as probe (FIG. 4); type: biochemical; details: for sensitivity of non-albumin (LDL/HDL, PLA2) esterase activity compared to pseudo esterase activity of albumin: human serum, 14:0 NPS-PC probe
Experimental: The reaction was started by the addition of 110 μl of TBS reaction buffer (10 mM Tris-HCl, 150 mM NaCl, pH 7.4) containing […] 14:0 NPS-PC and 5 mM EDTA to 20 μl of HSA solution in a well of a 96-well plate. The reactions were followed at wavelength 405 nm (absorbance) in a SPECTRAmax M5 plate reader.
As shown in EXAMPLE 1, using 14:0 NPS-PC as probe also identified non-albumin esterase activity, i.e. PLA2 activity in human serum, which is mainly associated with HDL and LDL. […] Pefabloc at 15-20 mM (final concentration) can eliminate all non-albumin esterase activity but maintain >90% of albumin esterase activity when assayed with 1.5 mM 14:0 NPS-PC at pH 7.4.

[2] = molecular target: HSA pseudo esterase activity (Homo sapiens, UniProt P02768); details: 2 mM Pefabloc SC incubation; HSA 44 mg/ml in TBS, pH 7.4; hydrochloride
Chain of HSA pseudo esterase activity (P02768 25-609): as above

[3] = system: non-HSA esterase activity associated with HDL; assay: Inactivation of HDL-associated esterase activity on incubation with Pefabloc SC (FIG. 5); type: biochemical, human; details: 2 mM Pefabloc SC
[4] = system: human serum non-HSA esterase activity; assay: Inactivation of non-HSA esterase activity in mix of 20 human sera (FIG. 6, FIG. 7); type: biochemical; details: 1 mM Pefabloc SC, 24° C., hydrochloride
Experimental: When human serum was incubated with 1 mM Pefabloc, the non-HSA esterase activity can be abolished in about 10 minutes.

Solubility in water = type: physicochemical

Chain of HSA pseudo esterase (P02768 25-609): as above

Structure (SMILES): CCCCCCCCCCCCCC(=O)OC[C@H](COP(=O)([O-])OCC[N+](C)(C)C)OC(=O)CCC(=O)Oc1ccc([N+](=O)[O-])cc1 [14:0 NPS-PC, 1-myristoyl-2-(4-nitrophenylsuccinyl)-sn-glycero-3-phosphocholine]
- Km in the pseudo esterase reaction of HSA (HSA pseudo esterase): relative low Km

- effect on the assay of albumin (albumin): does not have effects
Structure (SMILES): C[S+](C)[O-] [DMSO, Dimethyl sulfoxide]

Structure (SMILES): O=C(O)CN(CCN(CC(=O)O)CC(=O)O)CC(=O)O [EDTA]
- activity of Ca^2+ dependent PLA2 towards 14:0 NPS-PC (Ca^2+ dependent PLA2): suppresses

Structure (SMILES): O=S(=O)(F)Cc1ccccc1 [PMSF, phenylmethylsulfonyl fluoride]
- sensitivity of non-albumin (LDL/HDL, PLA2) esterase activity compared to pseudo esterase activity of albumin [1]: much more sensitive

Structure (SMILES): Cl.NCCc1ccc(S(=O)(=O)F)cc1 [Pefabloc SC, 4-(2-aminoethyl)benzenesulfonyl fluoride hydrochloride]
- sensitivity of non-albumin (LDL/HDL, PLA2) esterase activity compared to pseudo esterase activity of albumin [1]: much more sensitive
- non-albumin esterase activity ([1]; inhibitor 15-20 mM final concentration, 1.5 mM 14:0 NPS-PC, pH 7.4): eliminate all
- inactivation of HSA pseudo esterase activity [2]: No inactivation; also recorded: no activity loss
- non-HSA esterase activity associated with HDL depleted ([3]; 6 hr of incubation, HDL 2.5 mg/ml of cholesterol): About 80%
- incubation time to complete inactivation of HDL-associated esterase activity ([3]; purified HDL): 6 to 10 h
- incubation time to complete inactivation of human serum non-HSA esterase activity [4]: about 15 min
- incubation time to complete inactivation of human serum non-HSA esterase activity ([4]; listed as Pefabloc): about 10 min

- solubility in water (Solubility in water): insoluble in water
Structure (SMILES): CCN(CC)CCN(Cc1ccc(-c2ccc(C(F)(F)F)cc2)cc1)C(=O)Cn1c(SCc2ccc(F)cc2)nc(=O)c2c1CCC2 [darapladib]
